Like-named read-outs stand apart in the source and are kept apart here.
Columns and labels:
VHL [1] = molecular target: T1, VHL (Homo sapiens, UniProt P40337); test: VHL HEK-293 BRET Assay (VHL NanoBRET Target Engagement Assay); assay type: cell-based; conditions: HEK 293 RT VHL-NanoLuc stable cells; read-out: IC50
T1 construct: expressed in transfected cells
Description: The VHL NanoBRET™ Target Engagement Assay analyzes the apparent affinity of test compounds for VHL in cells by competitive displacement of a VHL NanoBRET™ tracer reversibly bound to a NanoLuc® VHL fusion protein stably expressed in the cells.
Test compounds were transferred to the assay plate (384 Well White Non-Binding Corning Assay Plates (Corning-3574)) using an Echo 555 Liquid Handler (Labcyte) in 2.5 nL increments and, as appropriate, intermediate stock concentrations of compounds, in order to prepare a titration series. 50 nL of control compound (10 mM; parental unlabeled VHL antagonist; see structure below) and 50 nL of DMSO (negative control) were dispensed into the appropriate control wells. DMSO was backfilled to a final volume of 50 nL as required. 50 nl per well of 1 mM VHL NanoBRET™ Tracer in DMSO (NanoBRET™ Tracer-PEG2-590 (see structure below)) was transferred into each well using an Echo 555 (ultimately yielding a final concentration of 1 uM). HEK 293 RT VHL-NanoLuc® stable cells were cultured in DMEM High Glucose with Pyruvate, 10% fetal bovine serum, 2 mg/mL of Geneticin Selective Antibiotic (50 mg/mL) and 2 mM HEPES (1 M). Cells were seeded in Opti-MEM (Life Technologies-11058-021), 1.7×10^5 cells/mL, 40 μl per well into the assay plate, centrifuged at 500 rpm for 30 seconds and incubated for 2 hours. Max Signal control wells consisted of DMSO only treated wells. Minimum Signal control wells contained of 10 uM parental unlabeled VHL antagonist (control compound—see structure below). 3× Complete Substrate plus Inhibitor Solution was prepared in Opti-MEM (consists of a 1:166 dilution of NanoBRET™ Nano-Glo® Substrate plus a 1:500 dilution of Extracellular NanoLuc® Inhibitor in Opti-MEM), and 20 ul was dispensed into each well of the 384-well plate and centrifuged at 1000 rpm for 1 minute, then incubated for 2 minutes at room temperature. Background Signal control wells were prepared without tracer for background correction steps.
Plates were read using a PerkinElmer Envision Reader (model 2104-0020) equipped with Luminescence option (Mirror: BRET2 Enh (PE Barcode 659), Emission Filter: Omega 610LP (Barcode 504), 2nd Emission Filter: Umbelliferone 460 (Barcode 207), Measurement height: 6.5 mm, Measurement time: 1 s). The raw BRET ratio values were calculated by dividing the acceptor emission value (610 nm) by the donor emission value (460 nm) for each sample. To correct for background, the BRET ratio in the absence of tracer (average of no-tracer control samples) was subtracted from the BRET ratio of each sample. Raw BRET units were converted to milliBRET units (mBU) by multiplying each raw BRET value by 1,000. The normalized NanoBRET™ signal was calculated relative to the Max Signal control wells (DMSO treated control wells) and the Minimum Signal control wells. Percentage inhibition was calculated relative to the Minimum Signal control and Maximum Signal control wells. IC50 values were derived by four parameter curve fitting using the Robust method.

HCC366 = test: Cell Viability Assay (CellTiter-Glo); assay type: cell-based; conditions: 10 μM, 5 days
Description: (§1) Cell lines were cultured in RPMI-1640, 5% fetal bovine serum, and 2 mM glutamine in a humidified incubator maintained at 37° C. with 5% CO2. Cells were assessed with a Vi-CELL Cell Viability Analyzer (Beckman Coulter; Brea, CA); viability of at least 90% was required for screening. A Multidropä Combi Reagent Dispenser (Thermo Scientific; Waltham, MA) was used to plate cells into Falcons^â 384-well, black, clear-bottom plates (Catalog No. 353962; Corning; Tewksbury, MA) using seeding densities previous determined to achieve approximately 80% confluence at the final time point of the assay. The compounds were prepared at 1000× in advance using an Echo 555 liquid handler (Labcyte; Sunnyvale, CA) and stored in −80° C. until the day of compound addition. On the following day, cells were treated with compounds at final assay concentration 1 uM and 10 uM using a Bravo Automated Liquid-Handling Platform (Agilent; Santa Clara, CA). After 5 days, 25 mL CellTiter-Glo^â reagent was added using a MultiFloä Microplate Dispenser (BioTek; Winooski, VT). Cell lysis was induced by mixing for 30 minutes on an orbital shaker; plates were then incubated at room temperature for 10 minutes to stabilize the luminescent signal. Luminescence was read by a 2104 EnVision^â Multilabel Plate Reader (PerkinElmer; Waltham, MA).
(§2) The data was processed using Genedata Screener^â, Version 15 (Genedata; Basel, Switzerland) to assess compound effects on viability. Compound treated wells were normalized to the median value of 14 DMSO control wells on the same 384 well plate.

VHL [2] = molecular target: T1, VHL; test: VHL HEK-293 BRET Assay (VHL NanoBRET Target Engagement Assay); assay type: cell-based; conditions: IC50 values measured in the presence of digitonin; HEK 293 RT VHL-NanoLuc stable cells; read-out: IC50 + Digi (μM)*
NCI-H2030 = test: Cell Viability Assay (CellTiter-Glo); assay type: cell-based; conditions: 5 days
Description: as §1, §2

PANC-1 = test: Cell Viability Assay (CellTiter-Glo); assay type: cell-based; conditions: 5 days
Description: as §1, §2

CAL-120 = test: Cell Viability Assay (CellTiter-Glo); conditions: 5 days
Description: as §1, §2

NCI-H23 = test: Cell Viability Assay (CellTiter-Glo); assay type: cell-based; conditions: 5 days
Description: as §1, §2

KPL-1 = test: Cell Viability Assay (CellTiter-Glo); assay type: cell-based; conditions: 10 μM, 5 days
Description: as §1, §2

MCF-7 = test: Cell Viability Assay (CellTiter-Glo); assay type: cell-based; conditions: 10 μM, 5 days
Description: (§3) Cell lines were cultured in RPMI-1640, 5% fetal bovine serum, and 2 mM glutamine in a humidified incubator maintained at 37° C. with 5% CO2. Cells were assessed with a Vi-CELL Cell Viability Analyzer (Beckman Coulter; Brea, CA); viability of at least 90% was required for screening. A Multidropä Combi Reagent Dispenser (Thermo Scientific; Waltham, MA) was used to plate cells into Falcons^â 384-well, black, clear-bottom plates (Catalog No. 353962; Corning; Tewksbury, MA) using seeding densities previous determined to achieve approximately 80% confluence at the final time point of the assay. The compounds were prepared at 1000× in advance using an Echo 555 liquid handler (Labcyte; Sunnyvale, CA) and stored in −80° C. until the day of compound addition. On the following day, cells were treated with compounds at final assay concentration 1 uM and 10 uM using a Bravo Automated Liquid-Handling Platform (Agilent; Santa Clara, CA). After 5 days, 25 mL CellTiter-Glo^â reagent was added using a MultiFloä Microplate Dispenser (BioTek; Winooski, VT). Cell lysis was induced by mixing for 30 minutes on an orbital shaker; plates were then incubated at room temperature for 10 minutes to stabilize the luminescent signal. Luminescence was read by a 2104 EnVision^â Multilabel Plate Reader (PerkinElmer; Waltham, MA). […]

HCC1438 = test: Cell Viability Assay (CellTiter-Glo); assay type: cell-based; conditions: 10 μM, 5 days
Description: as §3

NCI-H1650 = test: Cell Viability Assay (CellTiter-Glo); assay type: cell-based; conditions: 10 μM, 5 days
Description: as §3

MDA-MB-436 = test: Cell Viability Assay (CellTiter-Glo); assay type: cell-based; conditions: 10 μM, 5 days
Description: as §3

KNS-62 = test: Cell Viability Assay (CellTiter-Glo); assay type: cell-based; conditions: 10 μM, 5 days
Description: as §1, §2

KPL-4 = test: Cell Viability Assay (CellTiter-Glo); assay type: cell-based; conditions: 10 μM, 5 days
Description: as §3

ABC-1 = test: Cell Viability Assay (CellTiter-Glo); assay type: cell-based; conditions: 10 μM, 5 days
Description: as §1, §2

T1 sequence (P40337 whole entry): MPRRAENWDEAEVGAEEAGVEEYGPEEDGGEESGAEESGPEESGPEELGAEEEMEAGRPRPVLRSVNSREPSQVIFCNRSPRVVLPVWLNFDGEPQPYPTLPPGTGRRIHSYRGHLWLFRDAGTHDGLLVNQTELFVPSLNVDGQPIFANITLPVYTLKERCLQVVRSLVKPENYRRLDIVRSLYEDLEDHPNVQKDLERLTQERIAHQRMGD

Row | IC50 (VHL [1]) [µM] | IC50 (VHL [2]) [µM] | SMILES | Normalized viability % DMSO (HCC366) [% DMSO] | Normalized viability % DMSO (NCI-H2030; 10 μM) [% DMSO] | Normalized viability % DMSO (PANC-1; 10 μM) [% DMSO] | also measured
1 | 3.37 | 4.41 | CC(C)(C)[C@@H](C(=O)N1C[C@H](O)C[C@H]1C(=O)N[C@H]1CC[C@H](c2nc3ccccc3o2)CC1)n1cc(C2CC2)nn1 [Compound 106, (2S,4R)-N-[4-(1,3-benzoxazol-2-yl)cyclohexyl]-1-[(2S)-2-(4-cyclopropyltriazol-1-yl)-3,3-dimethyl-butanoyl]-4-hydroxy-pyrrolidine-2-carboxamide] | 6.0 | – | – | –
2 | 3.69 | 9.5 | CC(C)(C)[C@@H](C(=O)N1C[C@H](O)C[C@H]1C(=O)NC1CC12CCc1cc(Br)ccc12)n1cc(C2CC2)nn1 (stereo partly drawn) [Compound 266, (2S,4R)-N-(5′-bromospiro[cyclopropane-2,1′-indane]-1-yl)-1-[(2S)-2-(4-cyclopropyltriazol-1-yl)-3,3-dimethyl-butanoyl]-4-hydroxy-pyrrolidine-2-carboxamide] | – | 31.8 | 27.6 | Normalized viability % DMSO (CAL-120; 10 μM): 46.4 % DMSO; Normalized viability % DMSO (NCI-H23; 10 μM): 37.6 % DMSO
3 | 26.7 | 22.3 | CC(C)(C)[C@@H](C(=O)N1C[C@H](O)C[C@H]1C(=O)NC1CN(c2ccncc2)C1)n1cc(C2CC2)nn1 [Compound 445, (2S,4R)-1-[(2S)-2-(4-cyclopropyltriazol-1-yl)-3,3-dimethyl-butanoyl]-4-hydroxy-N-[1-(4-pyridyl)azetidin-3-yl]pyrrolidine-2-carboxamide] | 5.2 | – | – | –
4 | 2.82 | 5.35 | Cc1ccc(N2CCC[C@H]2CNC(=O)[C@@H]2C[C@@H](O)CN2C(=O)[C@@H](n2cc(C3CC3)nn2)C(C)(C)C)cc1 [Compound 462, (2S,4R)-1-[(2S)-2-(4-cyclopropyltriazol-1-yl)-3,3-dimethyl-butanoyl]-4-hydroxy-N-[[(2S)-1-(p-tolyl)pyrrolidin-2-yl]methyl]pyrrolidine-2-carboxamide] | 11.3 | – | – | –
5 | 3.68 | 4.86 | CC(C)(C)[C@@H](C(=O)N1C[C@H](O)C[C@H]1C(=O)NC1CCN(c2ccc(Cl)c(Cl)c2)C1)n1cc(C2CC2)nn1 (stereo partly drawn) [Compound 463, (2S,4R)-1-[(2S)-2-(4-cyclopropyltriazol-1-yl)-3,3-dimethyl-butanoyl]-N-[1-(3,4-dichlorophenyl)pyrrolidin-3-yl]-4-hydroxy-pyrrolidine-2-carboxamide] | – | – | 35.6 | –
6 | 0.135 | 6.66 | CC(C)(NC(=O)[C@@H]1C[C@@H](O)CN1C(=O)[C@@H](n1cc(C2CC2)nn1)C(C)(C)C)C(=O)Nc1ccccc1 [Compound 480, (2S,4R)-N-(2-anilino-1,1-dimethyl-2-oxo-ethyl)-1-[(2S)-2-(4-cyclopropyltriazol-1-yl)-3,3-dimethyl-butanoyl]-4-hydroxy-pyrrolidine-2-carboxamide] | – | 5.6 | 22.7 | Normalized viability % DMSO (KPL-1): 47.9 % DMSO; Normalized viability % DMSO (MCF-7): 13.7 % DMSO; Normalized viability % DMSO (HCC1438): 11.3 % DMSO; Normalized viability % DMSO (NCI-H1650): 12.6 % DMSO; Normalized viability % DMSO (MDA-MB-436): 23.6 % DMSO; Normalized viability % DMSO (KNS-62): 8.7 % DMSO; Normalized viability % DMSO (NCI-H2030; 1 μM): 32.4 % DMSO; Normalized viability % DMSO (PANC-1; 1 μM): 38.1 % DMSO; Normalized viability % DMSO (CAL-120; 10 μM): 15.5 % DMSO; Normalized viability % DMSO (NCI-H23; 1 μM): 37.0 % DMSO; Normalized viability % DMSO (NCI-H23; 10 μM): 8.2 % DMSO; Normalized viability % DMSO (KPL-4): 38.4 % DMSO; Normalized viability % DMSO (ABC-1): 38.1 % DMSO
7 | 3.68 | 5.56 | CCC(CNC(=O)[C@@H]1C[C@@H](O)CN1C(=O)[C@@H](n1cc(C2CC2)nn1)C(C)(C)C)Oc1cccc(C(F)(F)F)c1 (stereo partly drawn) [Compound 493, (2S,4R)-1-[(2S)-2-(4-cyclopropyltriazol-1-yl)-3,3-dimethyl-butanoyl]-4-hydroxy-N-[2-[3-(trifluoromethyl)phenoxy]butyl]pyrrolidine-2-carboxamide] | – | – | 51.8 | –
8 | 0.55 | 2.52 | CC(Cc1ccc(Br)cc1F)NC(=O)[C@@H]1C[C@@H](O)CN1C(=O)[C@@H](n1cc(C2CC2)nn1)C(C)(C)C (stereo partly drawn) [Compound 556, (2S,4R)-N-[2-(4-bromo-2-fluoro-phenyl)-1-methyl-ethyl]-1-[(2S)-2-(4-cyclopropyltriazol-1-yl)-3,3-dimethyl-butanoyl]-4-hydroxy-pyrrolidine-2-carboxamide] | – | 50.4 | – | –
9 | 0.928 | 1.64 | CC(C)(NC(=O)[C@@H]1C[C@@H](O)CN1C(=O)[C@@H](n1cc(C2CC2)nn1)C(C)(C)C)c1cccc(C#N)c1 [Compound 561, (2S,4R)-N-[1-(3-cyanophenyl)-1-methyl-ethyl]-1-[(2S)-2-(4-cyclopropyltriazol-1-yl)-3,3-dimethyl-butanoyl]-4-hydroxy-pyrrolidine-2-carboxamide] | 12.5 | – | – | –
10 | 0.829 | 1.35 | CCC(NC(=O)[C@@H]1C[C@@H](O)CN1C(=O)[C@@H](n1cc(C2CC2)nn1)C(C)(C)C)c1noc(-c2cccc(Br)c2)n1 (stereo partly drawn) [Compound 617, (2S,4R)-N-[1-[5-(3-bromophenyl)-1,2,4-oxadiazol-3-yl]propyl]-1-[(2S)-2-(4-cyclopropyltriazol-1-yl)-3,3-dimethyl-butanoyl]-4-hydroxy-pyrrolidine-2-carboxamide] | – | – | 69.8 | –
11 | – | – | CNC(=O)[C@@H]1C[C@@H](O)CN1C(=O)[C@@H](n1cc(CN(C)c2ccccc2)nn1)C(C)(C)C [Compound 842, (2S,4R)-1-[(2S)-3,3-dimethyl-2-[4-[(N-methylanilino)methyl]triazol-1-yl]butanoyl]-4-hydroxy-N-methyl-pyrrolidine-2-carboxamide] | – | – | – | Normalized viability % DMSO (CAL-120; 1 μM): 18.5 % DMSO
12 | – | – | CNC(=O)[C@@H]1C[C@@H](O)CN1C(=O)[C@@H](n1cc(-c2cccc(C(F)(F)F)c2)nn1)C(C)(C)C [Compound 974, (2S,4R)-1-[(2S)-3,3-dimethyl-2-[4-[3-(trifluoromethyl)phenyl]triazol-1-yl]butanoyl]-4-hydroxy-N-methyl-pyrrolidine-2-carboxamide] | – | – | – | Normalized viability % DMSO (NCI-H2030; 1 μM): 15.3 % DMSO
13 | 18.2 | 7.47 | CNC(=O)[C@@H]1C[C@@H](O)CN1C(=O)[C@@H](n1cc(CN2CCC(C(=O)OC)CC2)nn1)C(C)(C)C [Compound 1059, methyl 1-[[1-[(1S)-1-[(2S,4R)-4-hydroxy-2-(methylcarbamoyl)pyrrolidine-1-carbonyl]-2,2-dimethyl-propyl]triazol-4-yl]methyl]piperidine-4-carboxylate] | – | 12.7 | – | Normalized viability % DMSO (CAL-120; 10 μM): 18.1 % DMSO

From patent publication US20230295145A1, “PYRROLIDINE DERIVATIVES AND METHODS OF USE” (Genentech, Inc., priority 2020, published 2023)
